One assay concerns ZIKV. The assay is described as follows: microbe, parasite or virus in culture. It is filed as cell-based, ZIKV strain SZ01. The settings on record: Zika virus, read-out: EC50 against ZIKV.
For assay [1], the system named is endosomal acidification in A549 cells. The assay is described as follows: Endosomal acidification, LysoSensor DND-189 flow cytometry. It is filed as cell-based, human.
In a further assay the test system is IFN-I response / TLR3. It is filed as cell-based, human. Particulars: A549 cells, DENV-2 MOI = 2, 50 nM, 12-48 hpi. The procedure:
Fig 6 C156-P1 restricted DENV-2 release from the endosome into the cytoplasm by suppressing the ATP6V0A2 protein. (A and C) A549 cells were infected with DENV-2 (MOI = 2) and treated with C156-P1 (50 nM), and the cells were harvested at 12, 24, 36, and 48 hpi. The mRNA levels of IFNB1, IFIT1, ISG15, OAS1, and TLR3 were quantitated by RT-qPCR. (B) A549 cells were infected with DENV-2 (MOI = 2) and incubated with C156-P1 (50 nM) for 24 h, after which the cell lysates were analyzed by Western blot (left panel), and band density analysis was performed (right panel). […] The intensity of FITC staining was determined using a CytoFLEX flow cytometer (left panel), and the mean fluorescence intensity (MFI) was calculated (right panel). […] The colocalization of E and Rab7A proteins was analyzed using Pearson’s correlation coefficients with the JACoP plugin for ImageJ software. […] (F) A549 cells were treated with DMSO, C156-P1 (100 nM), or PHY34 (100 nM) for 48 h, and ATP6V0A2 mRNA levels were quantified by RT-qPCR. […] The intensity of FITC staining was determined by a flow cytometer (left panel), and the MFI was calculated (right panel). […] The DENV-2 NS3 protein was determined by Western blot. […] The levels of ATP6V0A2 mRNA, intracellular viral RNA, DENV-2 NS3 protein, and extracellular virus titer were assessed at 48 hpi. […]

One may read the EC50 as the concentration that produces a half-maximal response.

Like-named read-outs stand apart in the source and are kept apart here.

Take `COc1cc2c(OCC#N)c3c(c(-c4ccc5c(c4)OCO5)c2cc1OC)C(=O)OC3` [Compound C156-P1]: the EC50 in the assay on ZIKV (A549, 48 h) was 1010 pM. Moreover, the EC50 with ZIKV (Vero, 48 h) turned out to be 760 pM. In assay [1], the “Endosomal acidification (FITC intensity of LysoSensor DND-189)” value is on record as “significantly decreased the MFI of FITC in a dose-dependent manner”. Also, in the assay with IFN-I response / TLR3, the “TLR3 mRNA expression induced by DENV-2” value is “significantly reduced the expression of TLR3 mRNA”; the “mRNA levels of IFNB1 and ISGs (IFIT1, ISG15, OAS1) induced by DENV-2” value is given as “apparently suppressed”.

Source of the values: PMC12587552, “A nitrogen-containing diphyllin derivative C156-P1 exhibited broad-spectrum antiviral activity against Flaviviridae viruses by preventing endosomal acidification” (Antimicrobial Agents and Chemotherapy, 2025).
